Earlier results in patent publication US12496272B1, “Stable epinephrine suspension formulation for inhalation with HFO propellant” (Amphastar Pharmaceuticals, Inc., priority 2024, dated 2025).

Water solubility (at 25° C.) [at 25 °C ppm]	Log P (octanol/water)	SMILES
2220	1.1	FCC(F)(F)F [HFA-134a, 1,1,1,2-tetrafluoroethane]
–	2.1	FC(C(F)(F)F)C(F)(F)F [HFA-227, 1,1,1,2,3,3,3-heptafluoropropane]

SMILES	Water solubility (at 25° C.) [at 25 °C ppm]	Log P (octanol/water)
F/C=C/C(F)(F)F [HFO-1234ze(E), trans-1,3,3,3-tetrafluoropropene]	–	1.3
